According to PMC9970268 (Cancer Research Communications, 2022):

Assays:
[1] = system: GFP-HER2-BM cells; test: Cell viability (MTT) assay; format: cell-based, human; conditions: for GI50: 0 to 1,000 nmol/L
Description: (§1) Using CellTiter 96 Non-Radioactive Cell Proliferation Assay (Promega, Corp.) according to manufactures’ instructions, formazan was used as an indicator of viable cells at an absorbance 570 nm in a Tecan Microplate Reader M100 (Tecan). Data were calculated as fold change from vehicle and transformed to logarithm base 10. 0 concentration was replaced with 1 nmol/L to fit using the 4-parameter logic nonlinear regression model in GraphPad Prism software. (n = 3 biologic replicates: with three technical replicates each).
(§2) All half maximal growth inhibitory concentration (GI50) values were determined by using the 4-parameter logistic curve model in GraphPad Prism 9 software. Statistical analyses were done also using GraphPad Prism 9 software, and differences were considered statistically significant at P ≤ 0.05 using ordinary one-way ANOVA or unpaired Student t test with Dunnet multiple comparison tests.

[2] = system: MCF10A cells; test: Cell viability (MTT) assay; format: cell-based, human; conditions: for inhibition of cell viability: 250 nmol/L, 120 hr; for GI50: Homo sapiens, MCF-10A, 120 hours, 0 to 1,000 nmol/L
Description: as §1, §2

[3] = system: MDA-MB-231 cells; test: Cell viability (MTT) assay; format: cell-based, human; conditions: for inhibition of cell viability: 250 nmol/L, 120 hr; for GI50: 120 hours, 0 to 1,000 nmol/L
Description: as §1, §2

[4] = target: T1, CYP2C19 (Homo sapiens, UniProt P33261); test: CyP450 enzyme assay (P450-Glo); format: in vitro ADME
T1 construct: purchased Promega
T1 sequence (P33261 whole entry): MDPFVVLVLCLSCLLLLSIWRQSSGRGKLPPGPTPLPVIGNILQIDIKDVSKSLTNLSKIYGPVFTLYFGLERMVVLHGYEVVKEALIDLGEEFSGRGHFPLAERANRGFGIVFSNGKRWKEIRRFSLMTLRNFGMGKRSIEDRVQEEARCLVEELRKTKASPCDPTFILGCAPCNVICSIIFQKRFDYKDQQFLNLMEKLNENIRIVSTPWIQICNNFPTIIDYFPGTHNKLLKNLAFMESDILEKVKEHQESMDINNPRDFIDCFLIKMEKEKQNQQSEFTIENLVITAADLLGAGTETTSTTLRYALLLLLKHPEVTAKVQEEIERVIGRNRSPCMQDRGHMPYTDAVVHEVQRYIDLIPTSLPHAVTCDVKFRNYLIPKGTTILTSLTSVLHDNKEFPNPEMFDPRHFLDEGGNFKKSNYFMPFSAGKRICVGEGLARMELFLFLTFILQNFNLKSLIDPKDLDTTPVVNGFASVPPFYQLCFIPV
Description: (§3) The assay was carried out using P450-Glo Screening System (Promega). The system contained recombinant human CYP enzyme and P450 reductase (and cytochrome b5 for CYP2C9, 2C19, and 3A4), luminogenic substrates appropriate for each CYP enzyme, a NADPH regeneration system (containing NADP+), and luciferin detection reagent. […] These compounds and organic solvents acetonitrile, and DMSO were purchased from Sigma-Aldrich.
(§4) First, 12.5 μL of the 4X stock solution of test compounds or positive controls (appropriate for each enzyme) were added to the “treated” wells. For the “untreated” (the values from these wells represent total CYP activity) and “minus-P450 control” wells (the values from these wells represent the CYP-independent background luminescence of the assay), 12.5 μL of vehicle was added. Then, 12.5 μL of the 4X control reaction mixture (containing membrane preparations devoid of CYP enzymes, the appropriate luminogenic substrate, and potassium phosphate buffer) were added to the minus-P450 control wells, and 12.5 μL of the 4X reaction mixture (containing human CYP membrane preparations, the appropriate luminogenic substrate, and potassium phosphate buffer) were added to all other wells. The plates were preincubated at room temperature for 10 minutes with the reaction mixture (membrane with enzyme, substrate, and 1 mol/L potassium phosphate buffer), and then 2X NADPH regeneration system was added to initiate the reaction. After incubation at room temperature for 30 minutes, 50 μL of the Luciferin Detection Reagent was added to stop the reaction and generate the luminescent signal. Before reading, the plate was incubated at room temperature for 20 minutes to stabilize the luminescent signal. The luminescence was measured using an Infinite F200 plate reader (Tecan). […] The percentage of CYP enzyme activity versus log concentration of test compounds were plotted to calculate the IC50 values.

[5] = target: T2, CYP3A4 (Homo sapiens, UniProt P08684); test: CyP450 enzyme assay (P450-Glo); format: in vitro ADME; conditions: for IC50: recombinant human CYP enzyme, 0.001–100 μmol/L
T2 construct: purchased Promega
T2 sequence (P08684 whole entry): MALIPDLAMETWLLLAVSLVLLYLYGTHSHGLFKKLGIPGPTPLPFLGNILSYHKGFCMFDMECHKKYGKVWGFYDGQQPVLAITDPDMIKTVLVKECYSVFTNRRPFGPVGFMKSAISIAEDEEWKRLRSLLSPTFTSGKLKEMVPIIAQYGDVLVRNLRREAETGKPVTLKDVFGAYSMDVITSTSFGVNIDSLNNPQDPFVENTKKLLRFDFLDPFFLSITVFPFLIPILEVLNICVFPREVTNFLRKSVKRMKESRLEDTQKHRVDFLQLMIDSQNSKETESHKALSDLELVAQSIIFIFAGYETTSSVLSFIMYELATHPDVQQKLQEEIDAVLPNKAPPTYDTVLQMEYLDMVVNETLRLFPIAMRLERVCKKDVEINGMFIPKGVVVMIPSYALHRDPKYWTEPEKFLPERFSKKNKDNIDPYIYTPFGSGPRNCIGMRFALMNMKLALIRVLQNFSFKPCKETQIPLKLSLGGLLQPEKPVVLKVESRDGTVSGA
Description: as §3, §4

[6] = target: T3, CYP2C9 (Homo sapiens, UniProt P11712); test: CyP450 enzyme assay (P450-Glo); format: in vitro ADME; conditions: recombinant human CYP enzyme, 0.001–100 μmol/L
T3 construct: purchased Promega
T3 sequence (P11712 whole entry): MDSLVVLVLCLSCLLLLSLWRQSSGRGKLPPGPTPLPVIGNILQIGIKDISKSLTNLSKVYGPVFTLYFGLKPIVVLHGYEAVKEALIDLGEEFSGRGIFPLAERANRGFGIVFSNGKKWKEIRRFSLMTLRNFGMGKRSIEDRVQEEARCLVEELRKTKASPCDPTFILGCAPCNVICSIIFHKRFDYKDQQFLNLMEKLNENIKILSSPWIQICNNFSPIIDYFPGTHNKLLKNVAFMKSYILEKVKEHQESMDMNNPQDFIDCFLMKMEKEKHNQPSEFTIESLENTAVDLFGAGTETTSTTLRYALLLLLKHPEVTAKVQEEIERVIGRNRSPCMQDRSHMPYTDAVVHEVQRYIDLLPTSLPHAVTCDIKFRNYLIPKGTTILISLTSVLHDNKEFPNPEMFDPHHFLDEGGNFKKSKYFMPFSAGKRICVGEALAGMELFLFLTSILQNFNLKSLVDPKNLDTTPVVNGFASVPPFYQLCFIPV
Description: as §3, §4

[7] = system: HER-2–positive (HER2+) tumor; conditions: immunocompromised mice; cited from earlier work
[8] = target: T4, Cdc42(G15A) interaction with Ect2 (Homo sapiens, UniProt P60953, G15A); test: Cdc42 (G15A) pulldown assay, Ect2; format: binding; conditions: 250 nmol/L, 1 hour preincubation, MDA-MB-231 cell lysates
T4 construct: purchased Cell Biolabs; host or cells: GEF from MDA-MB-231 lysate
T4 sequence (P60953 whole entry G15A): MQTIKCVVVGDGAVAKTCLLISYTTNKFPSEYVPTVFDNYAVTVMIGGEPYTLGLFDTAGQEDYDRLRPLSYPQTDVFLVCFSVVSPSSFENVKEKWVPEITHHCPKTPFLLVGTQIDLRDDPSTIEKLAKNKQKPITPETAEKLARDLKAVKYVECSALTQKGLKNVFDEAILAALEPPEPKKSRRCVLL
Description: MDA-MB-231 cells were lysed in 1% Triton X-100, 20 mmol/L HEPES, pH 7.4, 150 mmol/L NaCl, 5 mmol/L MgCl2, and protease inhibitors, and processed as described previously ([20]). Equal amounts of protein from cleared lysates were incubated for 1 hour at 4°C with glutathione-agarose beads conjugated to GST-Rac1 and GST-Cdc42(G15A) nucleotide-free mutant (Cell Biolabs) that were preincubated (for 1 hour) with vehicle or Rac/Cdc42 inhibitors, as indicated. The beads were washed, and pulldowns were immunoblotted for Vav2 or Ect2.

[9] = system: MDA-MB-231 cells; test: Wound healing assay; format: cell-based, human; conditions: 250 nmol/L; 12 and 24 hours
Description: MDA-MB-231 cells were plated on 12-well plates at equal cell density until confluent. Then the media was changed to 1% FBS, and a single scratch was made in the center of the monolayer culture with a pipet tip. Compounds were added immediately at 250 or 500 nmol/L and images were digitally acquired from a Keyence microscope (10×) at 0, 12, and 24 hours. The scratch area was quantified in ImageJ using the Macro Wound Healing Tool (http://dev.mri.cnrs.fr/projects/imagej-macros/wiki/Wound_Healing_Tool; n = 3 biologic replicates: with three technical replicates each).

[10] = system: PAK1/2/3; test: Western blot of PAK phosphorylation in MDA-MB-231 cells; format: cell-based, human; conditions: MDA-MB-231, 250 nmol/L
From the text: (§5) Total cell lysates or pulldowns were Western blotted using routine procedures. The primary antibodies used were anti-Rac (Cell Signaling Technology), anti-Cdc42 (Abcam), anti-PAK1+PAK2+PAK3 (Cell Signaling Technology), anti-pPAK1 (T423)/PAK2 (T402; Abcam), anti-PAK1 + PAK2 + PAK3 (phospho T423; Abcam), Rac1B, and β-actin (Millipore-Sigma).

[11] = system: Rac, Cdc42, RhoA, PAK, and p-PAK; test: Western blot of tumor lysates from treated mice; format: in vivo, SCID mice; conditions: GFP-HER2-BM tumors, 5 mg/kg BW, 53 days
From the text: Treatments continued until sacrifice at day 53.
as §5

[12] = mice; cited from earlier work
[13] = target: Rac1B splice variant (Homo sapiens, UniProt P63000); test: Rac1B activation pulldown assay in MDA-MB-468 cells; conditions: MDA-MB-468, 500 nmol/L, 24 hours
Description: (§6) Rac-GTP and Cdc42-GTP were detected using Rac Activity Assay or Cdc42 Activity Assay, as per manufacturer's instructions (Cell Signaling Technology). Briefly, total cell lysates were quantified and added equally to PAK-p21–binding domain conjugated Sepharose beads. After 1 hour of incubation, beads were washed, bound proteins extracted in sample buffer, and Rac1-GTP and Cdc42-GTP detected by Western blot analysis using Rac1, Rac1b, or Cdc42 antibody. (n = 3 biological replicates).

[14] = target: Rac1 (Homo sapiens, UniProt P63000); test: Rac activation pulldown assay in MDA-MB-231 cells; conditions: MDA-MB-231, 24 hours, various concentrations
Description: as §6

| SMILES | inhibition of cell viability ([1]; 250 nmol/L, 120 hr) | inhibition of cell viability ([1]; 500 nmol/L, 72 hours) | inhibition of cell viability [2] | GI50 [2] | inhibition of cell viability [3] | IC50 [5] | IC50 [6] | Cdc42(G15A) interaction with Ect2 [8] | wound closure [9] | reduction of p-PAK1/3 levels (Thr423) [10] | reduction of p-PAK2 S144 (61 kD band) [10] | reduction of p-PAK2 T423 (61 kD band) [10] | Cdc42 and RhoA levels [11] | reduction of Thr 423 phosphorylation in PAKs 1, 2, 3 compared with vehicle [11] | reduction of p-Serine 141,144,154 levels in PAK1, 2, and 3 [11] | total Rac, and PAK1/2/3 levels [11] | further results |
| --- | --- | --- | --- | --- | --- | --- | --- | --- | --- | --- | --- | --- | --- | --- | --- | --- | --- |
| CCn1c2ccccc2c2cc(-n3nncc3-c3ccccc3)ccc21 [MBQ-167] | approximately 85% | approximately 75% | 30% | 296 nM | 50% | 280 nM | 890 nM | no effect | wound area was maintained at 12 and 24 hours | approximately 75% | approximately 50% | approximately 60% | remain unaffected | approximately 50% | did not show changes | Decreases were observed | GI50 ([1]; 120 hours): ~160 nM; GI50 ([1]; Homo sapiens, 120 h): 163 nM; GI50 [3]: ~160 nM; GI50 ([3]; Homo sapiens, MDA-MB-231, 120 h): 162 nM; IC50 ([4]; recombinant human CYP enzyme, 0.001–100 μmol/L): 455 nM; inhibition of HER2+ tumor growth and metastasis to all organs [7]: approximately 90%; half-life in plasma [12]: approximately 2.5 hours; half-life in tumor tissue [12]: approximately 8 hours |
| CCn1c2ccccc2c2cc(-n3nncc3-c3cccc(OC)c3)ccc21 [MBQ-168] | approximately 85% | approximately 75% | 30% | 304 nM | 50% | 3180 nM | 670 nM | no effect | wound area was maintained at 12 and 24 hours | approximately 100% | approximately 50% | approximately 100% | remain unaffected | approximately 50% | approximately 75% | Decreases were observed | GI50 ([1]; Homo sapiens, 120 hours): 171 nM; GI50 ([3]; Homo sapiens, MDA-MB-231): 199 nM; CYP2C19 IC50, fold lower than the IC50 for the positive control [4]: approximately 6 fold; IC50 at 30 min ([4]; human, recombinant human CYP enzyme, 0.001–100 μmol/L): 523 nM; potency at inhibiting CYP3A4, times less potent than MBQ-167 [5]: approximately 10 X; decrease of p-PAK ser 141, 154, PAK1/3 (68 kD band) [10]: approximately 95%; activation and expression of Rac1B [13]: inhibited activation of Rac1B, as well as expression; Rac.GTP incorporation [14]: inhibits Rac.GTP incorporation in a dose-dependent manner |
